Experimental data reported in patent US11542273B2, “Amide compound having bet proteolysis-inducing action and medicinal application thereof” (MITSUBISHI TANABE PHARMA CORPORATION, priority 2018, dated 2023).

What was measured:
BRD4 bromodomain 1 = BRD4 bromodomain 1 (Homo sapiens (Human), UniProt O60885); assay: Inhibitory action on binding of BRD4 protein and ligand, Test Method 1 (TR-FRET, BRD4 bromodomain 1 TR-FRET Assay Kit); settings: Test Method 1, BRD4 bromodomain 1 and ligand
Procedure: The inhibitory action of the compound of the present invention on the binding of BRD4 protein and a ligand thereof was evaluated by the time-resolved fluorescence resonance energy transfer (TR-FRET) method using BRD4 bromodomain 1 TR-FRET Assay Kit (Cayman). In this experiment, (+)-JQ1 known to have an inhibitory activity on the binding of BRD4 protein and a ligand therefor was used as a positive control drug. A test compound dissolved in DMSO was diluted with TR-FRET Assay Buffer, added to a 384 well black plate, BRD4 bromodomain 1 Europium Chelete was further added and the cells were incubated at room temperature for 15 min. Thereafter, BRD4 bromodomain 1 Ligand/APC Acceptor Mixture was added and the cells were incubated at room temperature for 1 hr. The binding amount of the BRD4 protein and ligand was measured as fluorescence intensity (excitation: 340 nm/emission: 620 nm and excitation: 340 nm/emission: 670 nm).
It was calculated from the straight line connecting the degradation rate at two points enclosing the 50% fluorescence intensity and the compound concentration.

[1] = system: human small cell lung cancer NCI-H82 cell; assay: Cytotoxic action on cancer cells (WST-8, 96 hr); format: cell-based; settings: 96 hr culture
In short: (§1)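 Viable cell number, measured by WST-8, is compared with compound-free cultures after treatment. Cells are kept in 10% FBS/RPMI1640 at 37° C under 5% CO2, and IC50 comes from the line joining the two survival rates that bracket 50%.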

[2] = system: human pancreatic cancer AsPC-1 cell; assay: Cytotoxic action on cancer cells (WST-8, 96 hr); format: cell-based; settings: ASPC1, AsPC-1 cells, 96 hr culture
In short: as §1

[3] = system: human large cell lung cancer NCI-H460 cell; assay: Cytotoxic action on cancer cells (WST-8, 96 hr); format: cell-based; settings: 96 hr culture
In short: as §1

[4] = system: human chronic myeloid leukemia K562 cell; assay: Cytotoxic action on cancer cells (WST-8, 96 hr); format: cell-based; settings: 96 hr culture
In short: as §1

[5] = system: human T-cell leukemia Jurkat cells; assay: Cytotoxic action on cancer cells (WST-8, 96 hr); format: cell-based; settings: 96 hr culture
In short: as §1

[6] = system: human uterine sarcoma MES-SA cell; assay: Cytotoxic action on cancer cells (WST-8, 96 hr); format: cell-based; settings: 96 hr culture
In short: as §1

[7] = system: human diffuse large B-cell lymphoma SU-DHL-6 cell; assay: Cytotoxic action on cancer cells (WST-8, 96 hr); format: cell-based; settings: SU-DHL-6 cells, 96 hr culture
In short: as §1

[8] = system: human colorectal cancer HCT116 cell; assay: Cytotoxic action on cancer cells (WST-8, 96 hr); format: cell-based; settings: HCT-116, 96 hr culture
In short: as §1

BRD4-1 (GST) = BRD4-1 (GST) (Homo sapiens (Human), UniProt O60885); assay: Inhibitory action on binding of BRD4 protein and acetylated histone H4, Test Method 2 (TR-FRET); settings: Test Method 2, BRD4-1 (GST) and acetylated histone H4, TR-FRET
Procedure: The inhibitory action of the compound of the present invention on the binding of BRD4 protein and a ligand thereof (acetylated histone H4) was evaluated by the time-resolved fluorescence resonance energy transfer (TR-FRET) method using EPIgeneous™ Binding Domain Kit A (Cisbio), BRD4-1 (GST) (Reaction Biology Corp) and [Lys(Ac)5/8/12/16]-Histone H4(1-21)-GGK (Biotin) (Eurogentec). In this experiment, (+)-JQ1 known to have an inhibitory activity on the binding of BRD4 protein and acetylated histone H4 therefor was used as a positive control drug. A test compound dissolved DMSO was diluted with attached Diluent Buffer, added to a 384 well white plate, and BRD4-1 (GST) and [Lys(Ac)5/8/12/16]-Histone H4(1-21)-GGK (Biotin) were further added. Thereafter, Streptavidin-d2 conjugate and Anti-GST-Eu^3+ Cryptate Conjugate were added and the cells were incubated at room temperature for 3 hr. The binding amount of the BRD4 protein and acetylated histone H4 was measured as the fluorescence intensity (excitation: 314 nm/emission: 620 nm and excitation: 314 nm/emission: 665 nm). […] It was calculated from the straight line connecting the degradation rate at two points enclosing the 50% fluorescence intensity and the compound concentration.

Row | SMILES | IC50 (BRD4 bromodomain 1) [nM] | IC50 [1] [nM] | IC50 [2] [nM] | IC50 [3] [nM] | IC50 [4] [nM] | IC50 [5] [nM] | IC50 [6] [nM] | IC50 [7] [nM] | IC50 [8] [nM] | IC50 (BRD4-1 (GST)) [nM]
1 | COC(=O)C[C@@H]1N=C(c2ccc(-c3ccc(OCC(=O)N[C@H](C(=O)N4C[C@H](O)C[C@H]4C(=O)N[C@@H](C)c4ccc(-c5scnc5C)cc4)C(C)(C)C)c(C#N)c3)cc2)c2c(sc(C)c2C)-n2c(C)nnc21 [Example 9, methyl [(6S)-4-{3′-cyano-4′-[2-({(2S)-1-[(2S,4R)-4-hydroxy-2-({(1S)-1-[4-(4-methyl-1,3-thiazol-5-yl)phenyl]ethyl}carbamoyl)pyrrolidin-1-yl]-3,3-dimethyl-1-oxobutan-2-yl}amino)-2-oxoethoxy][1,1′-biphenyl]-4-yl}-2,3,9-trimethyl-6H-thieno[3,2-f][1,2,4]triazolo[4,3-a][1,4]diazepin-6-yl]acetate] | 47 | 15 | 30 | 24 | 2.2 | 1.2 | 2.6 | 0.57 | 4.7 | 
2 | COC(=O)C[C@@H]1N=C(c2ccc(N3CC[C@@H](Oc4ccc5oc(C(=O)N[C@H](C(=O)N6C[C@H](O)C[C@H]6C(=O)N[C@@H](C)c6ccc(-c7scnc7C)cc6)C(C)(C)C)cc5c4)C3)cc2)c2c(sc(C)c2C)-n2c(C)nnc21 [Example 142, methyl [(6S)-4-{4-[(3R)-3-{[2-({(2S)-1-[(2S,4R)-4-hydroxy-2-({(1S)-1-[4-(4-methyl-1,3-thiazol-5-yl)phenyl]ethyl}carbamoyl)pyrrolidin-1-yl]-3,3-dimethyl-1-oxobutan-2-yl}carbamoyl)-1-benzofuran-5-yl]oxy}pyrrolidin-1-yl]phenyl}-2,3,9-trimethyl-6H-thieno[3,2-f][1,2,4]triazolo[4,3-a][1,4]diazepin-6-yl]acetate] |  | 5.9 | 5.7 | 11 | 2.1 | 0.36 | 1.6 | 0.93 | 3.9 | 110
3 | COC(=O)C[C@@H]1N=C(c2ccc(-c3ccc(C(=O)N[C@H](C(=O)N4C[C@H](O)C[C@H]4C(=O)N[C@@H](C)c4ccc(-c5scnc5C)cc4)C(C)(C)C)c(Cl)c3)cc2)c2c(sc(C)c2C)-n2c(C)nnc21 [Example 157, methyl {(6S)-4-[3′-chloro-4′-({(2S)-1-[(2S,4R)-4-hydroxy-2-({(1S)-1-[4-(4-methyl-1,3-thiazol-5-yl)phenyl]ethyl}carbamoyl)pyrrolidin-1-yl]-3,3-dimethyl-1-oxobutan-2-yl}carbamoyl)[1,1′-biphenyl]-4-yl]-2,3,9-trimethyl-6H-thieno[3,2-f][1,2,4]triazolo[4,3-a][1,4]diazepin-6-yl}acetate] |  | 4.5 | 23 | 23 | 1.2 | 0.46 | 1.7 | 0.39 | 4.5 | 61
